From ChEMBL document CHEMBL1150095, “Antitumor activity and stereochemistry of acetylenic alcohols from the sponge Cribrochalina vasculum” (1995)
Calls of active or inactive are those of the source. No cut-off for these calls is given here.

Columns and labels:
NCI-H522 = experiment: Antitumor activity against human NCI-H522 cells; assay type: functional
IGROV-1 = experiment: Antitumor activity against human IGROV1 cells; assay type: functional

In the case of `C#C[C@@H](O)/C=C/CCCCCCCCC(C)CCCCCCCC` (some centres not stated), the Activity (NCI-H522) is reported as “Active” and the Activity (IGROV-1) is reported as “Active”.
